Measurements taken from PMC9232612, “A phase 1b randomised controlled trial of a glucagon-like peptide-1 and glucagon receptor dual agonist IBI362 (LY3305677) in Chinese patients with type 2 diabetes” (Nature Communications, 2022).
Several values for one entry are separate records, joined by “and”; a condition that tells them apart may be missing. Equal values may be shown once.

Experiments:
Assay type in all cases: in vivo, human
[1] = test system: Chinese patients with T2D; assay: Mixed-meal tolerance test (MTT): C peptide
Description: (§1) HbA1c (2200101, Bio-Rad, USA), blood glucose (05168791190, Roche Diagnostics, Germany), insulin (12017547122, Roche Diagnostics, Germany), C peptide (03184897190, Roche Diagnostics, Germany), total GLP-1 (GLP-1 [7–36] amide and its metabolite, GLP-1 [9–36] amide, 10-1278-01, Mercodia AB, Sweden) and OXM (AL-139, AnshLabs, USA) tests were performed according to the manufactures’ instruction manuals in a central laboratory (KingMed Diagnostics, Guangzhou, China). HbA1c was measured using a Bio-rad D-100 Haemoglobin Testing System (Bio-rad). Blood glucose was measured using a Roche Cobas c702 analyser (Roche Diagnostics). Insulin and C peptide were measured using a Roche […] analyser (Roche Diagnostics). GLP-1 and OXM were measured using a Tecan Infinite M Plex microplate reader (TECAN).
(§2) Standard non-compartmental pharmacokinetics methods were used to analyze IBI362 plasma concentration data using Pkanalix 2020R1 (Lixoft, Antony, France). Secondary efficacy outcomes included change from baseline to week 12 in HbA1c, fasting plasma glucose (FPG), fasting insulin levels, change from baseline to week 12 in post-mixed-meal tolerance test (post-MTT) glucose, insulin, C peptide, GLP-1 and OXM levels, as well as seven-point self-measured blood glucose (SMBG) profile.
IBI362 Innovent Biologics (Suzhou) Co., Ltd. CIBI362A101
(§3) 3. Standard meal test (MTT) collection measures included: insulin, C-peptide, plasma glucose, glucagon, endogenous OXM, and endogenous GLP-1. The sampling points include: fasting, 30 min, 1h, 2h, 3h and 4h.
(§4) A total of 9 mL blood will be collected from each blood collection point. See the manual of the central laboratory for the detailed operation process. Fasting state refers to fasting for 10 hours. [ The standard meal is
(§5) instant noodles. The master Kang roast beef noodles (bucket noodles) purchased by the sponsor in a unified manner are removed from the oil bag. The noodles are soaked in boiled water and then removed. The seasoning
(§6) bag is added and mixed well. The time is counted from the first bite of eating. The noodles are eaten within 10 minutes, and 200 mL of water is drunk; or the instant noodles are directly opened with 200 mL of boiled
water to ensure that the noodles are eaten and the water or soup is drunk]. Visit days when MTT test is performed: 1 day prior to Cycle 1 administration, Day 80 (D80).
4. If the patient experiences drug-related adverse events during dose escalation and meets the protocol-specified tolerance criteria, dose adjustment is required at the investigator's discretion, and a standard meal test
should be performed 48 hours after the first dose after dose adjustment.
(§7) ● Test by central laboratory

[2] = test system: Chinese patients with T2D; assay: Mixed-meal tolerance test (MTT): plasma glucose and glucose AUC0-4 h; settings: for Percent change from baseline to week 12 in post-MTT glucose AUC0-4 h, LS mean: MMRM
Description: as §1, §2
The analyses for change from baseline in HbA1c, FPG, post-MTT glucose AUC0–4 h and body weight were performed using the mixed-effect model for repeated measures (MMRM) with least-squares means and standard error provided. The MMRM included the corresponding baseline value, treatment, visit and treatment-by-visit as fixed effects and patient as a random effect. Mean change or mean percent change from baseline were analysed using a restricted maximum likelihood (REML)‐based repeated measures approach in combination with the Newton Raphson Algorithm. The fix effect of visit was fitted as a repeated effect and an unstructured covariance matrix was used. In case of non-converge, matrix like Variance Components and Compound Symmetry will be tested in a subsequent order until model‐convergence is achieved. The Kenward-Roger degree of freedom was used in estimating fixed effects. No missing data imputation was conducted. For HbA1c, FPG and body weight, point estimate of treatment difference versus placebo and 90% CI were provided for each IBI362 dose group and the dulaglutide group, with nominal p values. […]
as §3, §4, §5, §6
water to ensure that the noodles are eaten and the water or soup is drunk]. Visit days when MTT test is performed: 1 day prior to Cycle 1 administration, Day 80 (D80). […]
as §7

Body-mass index (BMI) = settings: mean
Text: (§8) Exploratory outcomes included change from baseline in body weight, waist circumference, body-mass index (BMI) and change in homeostatic model assessment of β-cell function (HOMA-β) and insulin resistance (HOMA-IR).

[3] = test system: Chinese patients with T2D; assay: Alanine aminotransferase and aspartate aminotransferase levels
Text: Primary outcomes of the study were the safety and tolerability of IBI362. Safety assessment included adverse events, physical examinations, laboratory tests (including lipase, amylase and calcitonin level measures), vital signs and 12-lead electrocardiogram. Adverse events were categorized according to the Medical Dictionary for Regulatory Activities system organ classes (SOCs) and preferred terms. Treatment-emergent adverse events (TEAEs) were monitored from the time of informed consent to the safety follow-up period. The severity of TEAEs (mild, moderate or severe) and the association between an event and the study drug were assessed by investigators based on pre-specified criteria.
CFB in ALT (U/L), mean (SD)
CFB in AST (U/L), mean (SD)
Fig. S2: Change from baseline in ALT and AST levels over time.
a. CFB in ALT levels over time. b. CFB in AST levels over time. Data are plotted as means +/- SD.
ALT = alanine aminotransferase; AST = aspartate aminotransferase; CFB = change from baseline;
SD = standard deviation. Source data are provided as a Source Data file. […]

Waist circumference = settings: for Change from baseline to week 12 in waist circumference, individual: single patients
Text: as §8

[4] = week 12, 0 min, 3.0 mg cohort, n=7
[5] = week 12, 0 min, 4.5 mg cohort, n=5
[6] = week 12, 0 min, 6.0 mg cohort, n=8
[7] = week 12, 30 min, 3.0 mg cohort, n=7
[8] = week 12, 30 min, 4.5 mg cohort, n=5
[9] = week 12, 30 min, 6.0 mg cohort, n=8
[10] = week 12, 60 min, 3.0 mg cohort, n=7
[11] = week 12, 60 min, 4.5 mg cohort, n=5
[12] = week 12, 60 min, 6.0 mg cohort, n=8
[13] = week 12, 120 min, 3.0 mg cohort, n=7
[14] = week 12, 120 min, 4.5 mg cohort, n=5
[15] = week 12, 120 min, 6.0 mg cohort, n=8
[16] = week 12, 180 min, 3.0 mg cohort, n=7
[17] = week 12, 180 min, 4.5 mg cohort, n=5
[18] = week 12, 180 min, 6.0 mg cohort, n=8
[19] = week 12, 240 min, 3.0 mg cohort, n=7
[20] = week 12, 240 min, 4.5 mg cohort, n=5
[21] = week 12, 240 min, 6.0 mg cohort, n=8

CC(C)C[C@H](NC(=O)[C@H](CC(C)C)NC(=O)[C@H](Cc1c[nH]c2ccccc12)NC(=O)[C@H](CCC(=O)O)NC(=O)[C@@H](NC(=O)[C@H](Cc1ccccc1)NC(=O)[C@H](CCC(=O)O)NC(=O)[C@H](CCCCNC(=O)COCCOCCNC(=O)COCCOCCNC(=O)CC[C@H](NC(=O)CCCCCCCCCCCCCCCCCCC(=O)O)C(=O)O)NC(=O)[C@H](C)NC(=O)[C@H](CCCCN)NC(=O)[C@H](CCCCN)NC(=O)[C@H](CCC(=O)O)NC(=O)[C@H](CC(=O)O)NC(=O)[C@H](CC(C)C)NC(=O)[C@H](Cc1ccc(O)cc1)NC(=O)[C@H](CCCCN)NC(=O)[C@H](CO)NC(=O)[C@H](Cc1ccc(O)cc1)NC(=O)[C@H](CC(=O)O)NC(=O)[C@H](CO)NC(=O)[C@@H](NC(=O)[C@H](Cc1ccccc1)NC(=O)[C@@H](NC(=O)CNC(=O)[C@H](CCC(N)=O)NC(=O)C(C)(C)NC(=O)[C@@H](N)Cc1c[nH]cn1)[C@@H](C)O)[C@@H](C)O)C(C)C)C(=O)N[C@@H](CCC(=O)O)C(=O)NCC(=O)NCC(=O)N1CCC[C@H]1C(=O)N[C@@H](CO)C(=O)N[C@@H](CO)C(=O)NCC(N)=O [IBI362]
C peptide during MTT, mean [1, 4]: 2.67 ng/mL | C peptide during MTT, mean [1, 5]: 2.81 ng/mL | C peptide during MTT, mean [1, 6]: 2.79 ng/mL | C peptide during MTT, mean [1, 7]: 3.41 ng/mL | C peptide during MTT, mean [1, 8]: 3.46 ng/mL | C peptide during MTT, mean [1, 9]: 3.54 ng/mL | C peptide during MTT, mean [1, 10]: 5.15 ng/mL | C peptide during MTT, mean [1, 11]: 4.85 ng/mL | C peptide during MTT, mean [1, 12]: 5.24 ng/mL | C peptide during MTT, mean [1, 13]: 8.22 ng/mL | C peptide during MTT, mean [1, 14]: 6.34 ng/mL | C peptide during MTT, mean [1, 15]: 8.25 ng/mL | C peptide during MTT, mean [1, 16]: 7.74 ng/mL | C peptide during MTT, mean [1, 17]: 7.22 ng/mL | C peptide during MTT, mean [1, 18]: 7.50 ng/mL | C peptide during MTT, mean [1, 19]: 5.91 ng/mL | C peptide during MTT, mean [1, 20]: 5.24 ng/mL | C peptide during MTT, mean [1, 21]: 5.41 ng/mL | Percent change from baseline to week 12 in post-MTT glucose AUC0-4 h, LS mean ([2]; 3.0 mg cohort, n=8): −37.0% and -36.99% | Percent change from baseline to week 12 in post-MTT glucose AUC0-4 h, LS mean ([2]; 4.5 mg cohort, n=8): −38.9% and -38.89% | Percent change from baseline to week 12 in post-MTT glucose AUC0-4 h, LS mean ([2]; 6.0 mg cohort, n=8): −43.9% and -43.88% | Glucose during MTT, mean [2, 4]: 7.91 mmol/L | Glucose during MTT, mean [2, 5]: 7.75 mmol/L | Glucose during MTT, mean [2, 6]: 7.11 mmol/L | Glucose during MTT, mean [2, 7]: 10.06 mmol/L | Glucose during MTT, mean [2, 8]: 9.84 mmol/L | Glucose during MTT, mean [2, 9]: 9.53 mmol/L | Glucose during MTT, mean [2, 10]: 13.39 mmol/L | Glucose during MTT, mean [2, 11]: 11.82 mmol/L | Glucose during MTT, mean [2, 12]: 11.83 mmol/L | Glucose during MTT, mean [2, 13]: 11.24 mmol/L | Glucose during MTT, mean [2, 14]: 10.28 mmol/L | Glucose during MTT, mean [2, 15]: 9.52 mmol/L | Glucose during MTT, mean [2, 16]: 8.73 mmol/L | Glucose during MTT, mean [2, 17]: 8.34 mmol/L | Glucose during MTT, mean [2, 18]: 7.51 mmol/L | Glucose during MTT, mean [2, 19]: 7.23 mmol/L | Glucose during MTT, mean [2, 20]: 7.08 mmol/L | Glucose during MTT, mean [2, 21]: 6.63 mmol/L | Change from baseline to week 12 in BMI (Body-mass index (BMI); IBI362 3.0 mg): -0.38 kg/m2 | Change from baseline to week 12 in BMI (Body-mass index (BMI); IBI362 4.5 mg): -1.25 kg/m2 | Change from baseline to week 12 in BMI (Body-mass index (BMI); IBI362 6.0 mg): -1.36 kg/m2 | Change from baseline in ALT, mean ([3]; week 4, 3.0 mg cohort): 3.76 U/L | Change from baseline in AST, mean ([3]; week 4, 3.0 mg cohort): 1.13 U/L | Change from baseline in ALT, mean ([3]; week 4, 4.5 mg cohort): -3.50 U/L | Change from baseline in AST, mean ([3]; week 4, 4.5 mg cohort): -2.03 U/L | Change from baseline in ALT, mean ([3]; week 4, 6.0 mg cohort): -7.38 U/L | Change from baseline in AST, mean ([3]; week 4, 6.0 mg cohort): -2.56 U/L | Change from baseline in ALT, mean ([3]; week 8, 3.0 mg cohort): -6.34 U/L | Change from baseline in AST, mean ([3]; week 8, 3.0 mg cohort): -1.20 U/L | Change from baseline in ALT, mean ([3]; week 8, 4.5 mg cohort): -7.66 U/L | Change from baseline in AST, mean ([3]; week 8, 4.5 mg cohort): -1.26 U/L | Change from baseline in ALT, mean ([3]; week 8, 6.0 mg cohort): -8.50 U/L | Change from baseline in AST, mean ([3]; week 8, 6.0 mg cohort): -3.36 U/L | Change from baseline in ALT, mean ([3]; week 12, 3.0 mg cohort): -6.34 U/L | Change from baseline in AST, mean ([3]; week 12, 3.0 mg cohort): -2.49 U/L | Change from baseline in ALT, mean ([3]; week 12, 4.5 mg cohort): -10.66 U/L | Change from baseline in AST, mean ([3]; week 12, 4.5 mg cohort): -2.82 U/L | Change from baseline in ALT, mean ([3]; week 12, 6.0 mg cohort): -8.38 U/L | Change from baseline in AST, mean ([3]; week 12, 6.0 mg cohort): -4.65 U/L | Change from baseline to week 12 in waist circumference, mean (Waist circumference; 3.0 mg cohort, n=7): -0.5 cm | Change from baseline to week 12 in waist circumference, mean (Waist circumference; 4.5 mg cohort, n=5): -3.0 cm | Change from baseline to week 12 in waist circumference, individual (Waist circumference; 3.0 mg cohort, n=7): -4.4 cm and -0.2 cm and -4.0 cm and -1.0 cm and 3.7 cm and 3.5 cm | Change from baseline to week 12 in waist circumference, individual (Waist circumference; 4.5 mg cohort, n=5): -4.5 cm and -1.8 cm and -2.1 cm and -2.2 cm and -4.2 cm | Change from baseline to week 12 in waist circumference, individual (Waist circumference; 6.0 mg cohort, n=8): -4.7 cm and -2.5 cm and -1.0 cm and -7.5 cm and -5.1 cm and -13.3 cm and -1.5 cm and -2.9 cm
